The NIST ThermoML archive (doi:10.1016/j.tca.2016.09.005)

Experiment: xn = mol fraction of the nth substance listed
Details: 100 kPa, Liquid; for speed of sound: Frequency=3 MHz, Sing-around technique in a fixed-path interferometer; for mass density: Vibrating tube method

OCCCO [propan-1,3-diol] + CO
Details	mass density, 283.15 K [kg/m3]	mass density, 293.15 K [kg/m3]	mass density, 303.15 K [kg/m3]	mass density, 313.15 K [kg/m3]	speed of sound, 283.15 K [m/s]	speed of sound, 293.15 K [m/s]	speed of sound, 303.15 K [m/s]	speed of sound, 313.15 K [m/s]
x2 = 0	1058.85	1052.61	1046.36	1040.07	1659.5	1636.3	1613.6	1591.1
x2 = 0.05	1052.58	1046.29	1039.98	1033.62	1645.8	1622.5	1599.5	1576.8
x2 = 0.0996	1045.92	1039.56	1033.18	1026.76	1629.2	1605.8	1582.6	1559.7
x2 = 0.1503	1038.75	1032.32	1025.88	1019.37	1613.8	1590.1	1566.8	1543.7
x2 = 0.2	1031.38	1024.87	1018.34	1011.73	1596.8	1572.8	1549.2	1525.8
x2 = 0.2502	1023.44	1016.87	1010.26	1003.55	1578.8	1554.7	1530.8	1507.1
x2 = 0.2998	1015.08	1008.41	1001.72	994.98	1560.7	1536.1	1511.9	1487.9
x2 = 0.3491	1006.18	999.42	992.64	985.81	1540.2	1515.4	1490.9	1466.6
x2 = 0.3998	996.52	989.65	982.76	975.82	1519.5	1494.2	1469.3	1444.7
x2 = 0.4497	986.31	979.34	972.34	965.29	1497	1471.6	1446.3	1421.4
x2 = 0.5	975.38	968.29	961.17	953.99	1474	1448	1422.3	1397
x2 = 0.5501	963.77	956.54	949.29	941.97	1450.2	1423.8	1397.7	1371.9
x2 = 0.5994	951.07	943.69	936.28	928.82	1423.3	1396.4	1369.7	1343.4
x2 = 0.6501	936.86	929.32	921.74	914.15	1394.9	1367.3	1340.1	1313.3
x2 = 0.6998	922.43	914.7	906.94	899.12	1366.9	1338.6	1310.7	1283.3
x2 = 0.7499	906.27	898.33	890.37	882.34	1336	1307.1	1278.5	1250.5
x2 = 0.8	889.44	881.29	873.11	864.86	1305	1275.3	1246.1	1217.4
x2 = 0.8501	869.9	861.5	853.06	844.55	1269.1	1238.8	1208.7	1179.2
x2 = 0.9	849.27	840.58	831.86	823.05	1233.7	1202.3	1171.3	1140.9
x2 = 0.9501	826.76	817.77	808.72	799.59	1196	1164	1132.1	1100.8
